Source: ChEMBL document CHEMBL1201862, “PubChem BioAssay data set” (2004)
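Dose response: 5 concentrations. Exposure: 48 h. Format: 96-well plates. Endpoint: linear interpolation; highest concentration if not reached. GI50 is the concentration that inhibits growth by half.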 Activity calls are given as the source filed them. No stated cut-off is given here; in the data, active = GI50 up to about 1.1 µM and inactive = higher.

How the values were obtained:
Experiment in all cases: DTP human tumour cell line panel, 48 h
LXFL 529 = tested on: LXFL 529
M19-MEL = tested on: M19-MEL
RXF 631 = tested on: RXF 631
XF498 = tested on: XF498
HOP-18 = tested on: HOP-18
BT-549 = tested on: BT-549
Hs-578T = tested on: Hs-578T
MCF7 = tested on: MCF7
MDA-N = tested on: MDA-N

Compound	GI50 (LXFL 529)	GI50 (M19-MEL)	GI50 (RXF 631)	GI50 (XF498)	GI50 (HOP-18)	GI50 (BT-549)	GI50 (Hs-578T)	GI50 (MCF7)	GI50 (MDA-N)
Clc1cc2ns[s+]c2cc1Cl	4.72 µM (inactive)	61.4 µM (inactive)	60.3 µM (inactive)	> 83.6 µM (inactive)	–	–	–	–	–
CCOC(=O)C1(C#N)C(c2ccccc2)CC(O)(c2ccc(Cl)cc2)C(C(=O)c2ccc(Cl)cc2)C1c1ccccc1 (stereo unspecified)	69.5 µM (inactive)	> 100 µM (inactive)	–	65.9 µM (inactive)	> 100 µM (inactive)	–	–	–	–
CC(=O)NNc1nc(C)c(C(/C=C/c2ccc(Cl)cc2)=N\NS(=O)(=O)c2ccc(C)cc2)s1	> 100 µM (inactive)	> 100 µM (inactive)	> 100 µM (inactive)	> 60.4 µM (inactive)	> 100 µM (inactive)	–	–	–	–
Cc1ccccc1NC(=O)c1nc(S)nc(N)c1-c1ccccc1C	> 100 µM (inactive)	> 100 µM (inactive)	–	–	> 100 µM (inactive)	–	–	–	–
COc1cc(CN[C@H]2CCc3cc(OC)c(OC)c(OC)c3-c3ccc(SC)c(=O)cc32)cc(OC)c1	0.0494 µM (active)	0.0308 µM (active)	< 0.01 µM (active)	0.0596 µM (active)	–	–	–	–	–
O=C(c1ccccc1)c1cccc(C(=O)c2ccccc2)c1	74.1 µM (inactive)	> 100 µM (inactive)	–	> 100 µM (inactive)	> 100 µM (inactive)	–	–	–	–
NC(=O)c1cc([N+](=O)[O-])cc([N+](=O)[O-])c1 [NITROMIDE]	> 100 µM (inactive)	22.4 µM (inactive)	> 100 µM (inactive)	–	–	–	–	–	–
Cc1ccc(Oc2ccc(C(=O)c3cccc(C(=O)c4ccc(Oc5ccc(C)cc5)cc4)n3)cc2)cc1	> 100 µM (inactive)	–	–	–	> 100 µM (inactive)	–	–	–	–
CC1=C(C(=O)O)N2C(=O)[C@@H](NC(=O)C(c3ccc(O)cc3)N3CSC(=S)N(C(C)C)C3)C2SC1 (stereo partly specified)	> 100 µM (inactive)	> 100 µM (inactive)	–	> 100 µM (inactive)	> 100 µM (inactive)	–	–	–	–
CC(C)=CC(=O)N1CCN(C(=O)C=C(C)C)CC1	> 100 µM (inactive)	> 100 µM (inactive)	> 100 µM (inactive)	> 100 µM (inactive)	> 100 µM (inactive)	–	–	–	–
O=C1C2C3CC(C4C5C=CC(C5)C34)C2C2C3CC(C12)C1C2C=CC(C2)C31 (stereo unspecified)	> 100 µM (inactive)	> 100 µM (inactive)	> 100 µM (inactive)	> 100 µM (inactive)	> 100 µM (inactive)	–	–	–	–
O=C(O)c1nc(-c2ccc(Cl)c(Cl)c2)nc2ccc(Cl)cc12	> 100 µM (inactive)	> 100 µM (inactive)	–	–	–	–	–	–	–
CN(C)CC/C(=N\Nc1ccc(Cl)c(Cl)c1)c1ccccc1	1.52 µM (inactive)	1.89 µM (inactive)	–	–	1.52 µM (inactive)	–	–	–	–
CCN1c2ccccc2-c2c3c1cc(C)cc3c1ccccc1[n+]2CC	0.384 µM (active)	0.36 µM (active)	5.24 µM (inactive)	–	–	–	–	–	–
CC(=O)OC1COC(N2CCc3ccccc32)C(OC(C)=O)C1OC(C)=O (stereo unspecified)	> 100 µM (inactive)	> 100 µM (inactive)	> 100 µM (inactive)	> 100 µM (inactive)	> 100 µM (inactive)	–	–	–	–
CC(C)[C@H](CCl)NC(=O)c1cccc(C(=O)N[C@H](CCl)C(C)C)n1 (stereo in doubt)	> 100 µM (inactive)	> 100 µM (inactive)	> 100 µM (inactive)	> 100 µM (inactive)	–	–	–	–	–
CN1C(=S)CSc2ccccc21	> 100 µM (inactive)	> 100 µM (inactive)	–	32.4 µM (inactive)	–	–	–	–	–
O=C1N=CN=C2C=CC(Cl)=C(I)C12 (stereo unspecified)	> 100 µM (inactive)	> 100 µM (inactive)	–	51.1 µM (inactive)	–	–	–	–	–
COC(=O)CCC(NC(=S)N/N=C(\C)c1nccs1)C(=O)OC (stereo unspecified)	60.4 µM (inactive)	50.5 µM (inactive)	58.2 µM (inactive)	> 100 µM (inactive)	21.2 µM (inactive)	–	–	–	–
O=C1CN=C(C[N+](=O)[O-])c2ccccc21	> 100 µM (inactive)	–	> 100 µM (inactive)	–	> 100 µM (inactive)	–	–	–	–

Compound	GI50 (LXFL 529)	GI50 (M19-MEL)	GI50 (RXF 631)	GI50 (XF498)	GI50 (HOP-18)	GI50 (BT-549)	GI50 (Hs-578T)	GI50 (MCF7)	GI50 (MDA-N)
O=C(CC1C(=O)Nc2ccccc2[S+]1[O-])Nc1ccccc1 (stereo unspecified)	> 100 µM (inactive)	> 100 µM (inactive)	> 100 µM (inactive)	> 100 µM (inactive)	> 100 µM (inactive)	–	–	–	–
Oc1cc(-c2ccccn2)nc2cc(F)ccc12	> 100 µM (inactive)	56.6 µM (inactive)	> 100 µM (inactive)	–	40.4 µM (inactive)	–	–	–	–
Cc1c(CCO)c(O)n2c(nc3ccccc32)c1C#N	36.6 µM (inactive)	> 100 µM (inactive)	–	> 100 µM (inactive)	47.5 µM (inactive)	–	–	–	–
O=[N+]([O-])C1C2C=CC(C2)[C@H]1c1ccc(Cl)cc1Cl (stereo partly specified)	39.4 µM (inactive)	34.8 µM (inactive)	–	43.7 µM (inactive)	–	–	–	–	–
O=C(c1ccccc1)c1c(CC(O)c2ccccc2)n(C(=O)c2ccccc2)c2ccccc12 (stereo unspecified)	39.5 µM (inactive)	59 µM (inactive)	–	> 100 µM (inactive)	–	–	–	–	–
CCOC(=O)CCc1c(C)c2c(OC)cc(OC)cc2oc1=O	62.5 µM (inactive)	> 100 µM (inactive)	–	35.2 µM (inactive)	32.1 µM (inactive)	–	–	–	–
CC(CN1CCN(CC(C)Nc2ccnc3cc(Cl)ccc23)CC1)Nc1ccnc2cc(Cl)ccc12 (stereo unspecified)	16.6 µM (inactive)	21.8 µM (inactive)	12.4 µM (inactive)	23.3 µM (inactive)	–	–	–	–	–
O=C(Cc1nc2ccccc2s1)C(=O)Nc1cccc(C(F)(F)F)c1	> 100 µM (inactive)	> 100 µM (inactive)	–	–	> 100 µM (inactive)	–	–	–	–
N#CC(C#N)=Cc1ccc(Oc2ccccc2)cc1	25.8 µM (inactive)	32 µM (inactive)	36.3 µM (inactive)	37.8 µM (inactive)	33.4 µM (inactive)	–	–	–	–
O=C1C(Cl)C(c2ccccc2Cl)N1n1cnc2ccccc2c1=O (stereo unspecified)	49.1 µM (inactive)	> 100 µM (inactive)	–	67.6 µM (inactive)	–	–	–	–	–
Sc1ncnc2c1ncn2Cc1ccco1	–	–	–	–	–	> 100 µM (inactive)	> 100 µM (inactive)	> 100 µM (inactive)	> 100 µM (inactive)
CN(C)c1ccc(/C=C2\Oc3ccccc3C2=O)cc1	–	–	–	–	–	> 100 µM (inactive)	22.5 µM (inactive)	54.1 µM (inactive)	34.8 µM (inactive)
COC(=O)[C@]1(C)CCC[C@@]2(C)C1CCC1=CC3(C(C)C)CCC12OO3 (stereo partly specified)	31.4 µM (inactive)	32.2 µM (inactive)	> 100 µM (inactive)	–	–	–	–	–	–
N#C/C(=C1/c2cc([N+](=O)[O-])ccc2-c2c1cc([N+](=O)[O-])cc2[N+](=O)[O-])N1CCCCC1	–	–	–	–	–	> 100 µM (inactive)	43.7 µM (inactive)	19 µM (inactive)	> 100 µM (inactive)
C=CC(C)CCC(C/C=C(\C)CCCC(C)C)C(=C)CCCC(C)C (stereo unspecified)	–	–	–	–	–	> 100 µM (inactive)	> 100 µM (inactive)	> 100 µM (inactive)	> 100 µM (inactive)
CC(=O)OC1C(O)COC(O[C@H]2CC[C@]34C[C@]35CC[C@]3(C)C([C@@]6(C)CC[C@@H](C(C)(C)O)O6)[C@@H](O)C[C@@]3(C)C5C[C@H](OC3OCC(O)C(O)C3O)[C@H]4C2(C)C)C1OC1OCC(O)C(O)C1O (stereo partly specified)	–	–	–	–	–	> 100 µM (inactive)	> 100 µM (inactive)	> 100 µM (inactive)	> 100 µM (inactive)
NC(=S)NNC(=O)CCC(=O)Nc1ccc(Cl)cc1Cl	26.1 µM (inactive)	> 100 µM (inactive)	> 100 µM (inactive)	–	–	–	–	–	–
CCCCCCCCCCCCCCCCCCNc1ccn(C2OC(COP(=O)(O)OCC3OC(n4ccc(N)nc4=O)C(O)C3O)C(O)C2O)c(=O)n1 (stereo unspecified)	–	–	–	–	–	> 49.5 µM (inactive)	> 100 µM (inactive)	45.2 µM (inactive)	> 100 µM (inactive)
C=C1c2nc3ccccc3n2C=C(c2ccc(OC)cc2)N1c1ccccc1	–	–	–	–	–	6.64 µM (inactive)	14.4 µM (inactive)	4.76 µM (inactive)	1.43 µM (inactive)
